Positions of bridges follow the written chain, without caps; N, C: chain ends. Non-standard residues stand in square brackets, D forms with d. No end group written: not given here. dCit = NC(=O)NCCC[C@@H](N)C(=O)O
What was measured:
[1] = tested on: B16F10-Nex2 melanoma cells; assay: Cell migration, wound healing assay; format: cell-based, murine; conditions: peptide 500 μM, 24 hours after wounding
Description: For the migration studies, 5×10^5 or 10^6 cells were distributed on 6-well plates and let them to adhere for 2 hours at 37° C./5% CO2. The culture medium was changed and the peptide was added at 500 μM overnight. The cell monolayer was “wounded” with a P1000 tip and incubated for 24 hours. Images of untreated cells (control) and peptide treated cells were captured with a JENOPTIK camera. Cell numbers (nuclei) were determined using the Pixcavator software version 5.0.
Viable B16F10-Nex2 cells (5×105)/well were distributed on a 6-well culture plate and incubated overnight at 37° C. in a humidified chamber with 5% CO2. A P1000 tip was used for wounding the cell monolayer and the image was immediately captured (0 hour) using a camera (Jenoptik) with the software Progres 2.8. After 24 hours a new image of the same field was obtained and recorded (24 hours).
Viable B16F10-Nex2 cells (3×10^5)/well were distributed in a 12-well culture plate and incubated for 4 hours at 37° C. in a humidified chamber with 5% CO2. Fresh medium containing RB10 (SEQ ID NO: 9) at different concentrations was added to the wells and incubated again for 4 hours. The monolayer wounding was performed as described above in Example 12, and images obtained accordingly. After 24 hours a new image in the same field was obtained and recorded (24 hours). […] Magnification ×100.

[2] = tested on: melanoma B16F10-Nex2 cells; assay: Alanine scanning series cell adhesion assay (MTT after trypsin-EDTA); format: cell-based, murine; conditions: 1 mM peptide, 24 hours
Description: The peptide RB10 (SEQ ID NO: 9) was engineered to replace each amino acid by alanine using Ala-scan methodology, and thus help evaluate the role of each amino acid on biological effect, specifically on the hyper-adherence observed with 1 mM peptide.
For this purpose, viable melanoma B16F10-Nex2 cells (1×10^4)/well were distributed on a 96-well culture plate and incubated for 4 hours. Fresh media containing 1 mM of the alanine-scanning series for RB10 was added and incubated for 24 hours. Treated cells were detached with 30 μl/well of trypsin-EDTA for five minutes at 37° C. and gently washed with PBS. Cells were incubated for 4 hours with 0.5 mg/mL of MTT [3-(4,5-Dimethylthiazol-2-yl)-2,5-diphenyltetrazolium bromide] in fresh media and the formazan crystals were solubilized adding 1 volume of a 10% SDS solution overnight. Intensity was measured using a plate reader at 570 nm. […] The 100% value for each peptide represented the treated cells that had not been trypsinized.

[3] = tested on: B16F10-Nex2 melanoma cells; assay: In vivo protection against lung colonization (metastatic melanoma model); design: species or system C57B1/6 mice; conditions: 250 μg i.p. on days 1, 3, 5, 7, 9, 11; lungs after 22 days
Description: (§1) Details of the in vitro tumor cell growth, cytotoxicity tests, determination of viable cells and in vivo protection experiments with B16F10 cells in a mouse metastatic model are described in Polonelli et al. (PLoS One. 3(6):e2371, 2008) and Dobroff et al. (Translat. Onc., 3: 204-217, 2010).
Peptides RB9 and RB10 along with the apoptotic peptide A4H3, a true microantibody of cytotoxic anti-melanoma mAb (A4) (Dobroff et al., Translat. Onc., 3: 204-217, 2010), were tested for their protective effects against lung colonization by B16F10-Nex2 melanoma cells (2×105) injected intravenously in C57B1/6 mice (6 animals/group). Peptides were intraperitoneally administered (250 μg i.p.) on days 1, 3, 5, 7, 9, 11 after tumor cell challenge. Lungs of peptide-treated animals are shown in FIG. 5 after 22 days of tumor challenge. As noticed, peptide treatment was interrupted 10 days before animal sacrifice.
In vivo protection by peptides RB9 and RB10 (and A4H3 control) against lung colonization by B16F10-Nex2 melanoma cells (2×105) injected intravenously in C57B1/6 mice (6 animals/group) is shown in FIG. 6. The other 5 CDRs of RebMab200 (SEQ ID NOs: 7, 10, 11, 12, 13) were unprotective in vivo. Peptides were administered in the same way as described above, and the number of lung nodules was determined.

tumor cells = assay: Antitumor activity of RebMab 200 CDR peptides; format: cell-based
From the text: as §1
Amidated RebMab 200 CDR H2 (SEQ ID NO: 7) shares up to sixteen (16) identical amino acids with similar H2 fragments from several murine antibodies of various specificities.

Substance: AARGETARATFAYWGQG-NH2 [RB10 A1]
- inhibition of cell migration (words) [1]: non-inhibition
- trypsin/EDTA-resistant cell adherence [2]: normally detached

Substance: C(dA)RGETA(dCit)AT(dF)AYWGQ(dA)C-NH2 (C[dA]RGETA[dCit]AT[dF]AYWGQ[dA]C-NH2; disulfide 1-18; N-terminus assumed; SMILES C[C@@H]1NC(=O)[C@H]([C@@H](C)O)NC(=O)[C@H](CCC(=O)O)NC(=O)CNC(=O)[C@H](CCCNC(=N)N)NC(=O)[C@@H](C)NC(=O)[C@@H](N)CSSC[C@@H](C(N)=O)NC(=O)[C@@H](C)NC(=O)[C@H](CCC(N)=O)NC(=O)CNC(=O)[C@H](Cc2c[nH]c3ccccc23)NC(=O)[C@H](Cc2ccc(O)cc2)NC(=O)[C@H](C)NC(=O)[C@@H](Cc2ccccc2)NC(=O)[C@H]([C@@H](C)O)NC(=O)[C@H](C)NC(=O)[C@@H](CCCNC(N)=O)NC1=O) [RB9 M2]
- inhibition of cell migration (words) [1]: partial inhibition

Substance: C(dA)RGETA(dCit)ATFAYWGQ(dA)-NH2 (C[dA]RGETA[dCit]ATFAYWGQ[dA]-NH2; N-terminus assumed; SMILES C[C@H](NC(=O)[C@H](Cc1ccccc1)NC(=O)[C@@H](NC(=O)[C@H](C)NC(=O)[C@@H](CCCNC(N)=O)NC(=O)[C@H](C)NC(=O)[C@@H](NC(=O)[C@H](CCC(=O)O)NC(=O)CNC(=O)[C@H](CCCNC(=N)N)NC(=O)[C@@H](C)NC(=O)[C@@H](N)CS)[C@@H](C)O)[C@@H](C)O)C(=O)N[C@@H](Cc1ccc(O)cc1)C(=O)N[C@@H](Cc1c[nH]c2ccccc12)C(=O)NCC(=O)N[C@@H](CCC(N)=O)C(=O)N[C@H](C)C(N)=O) [RB10 M4]
- inhibition of cell migration (words) [1]: partial inhibition

Substance: C(dA)RGETA(dCit)ATFAYWGQ(dA)C-NH2 (C[dA]RGETA[dCit]ATFAYWGQ[dA]C-NH2; disulfide 1-18; N-terminus assumed; SMILES C[C@@H]1NC(=O)[C@H](Cc2ccccc2)NC(=O)[C@H]([C@@H](C)O)NC(=O)[C@H](C)NC(=O)[C@@H](CCCNC(N)=O)NC(=O)[C@H](C)NC(=O)[C@H]([C@@H](C)O)NC(=O)[C@H](CCC(=O)O)NC(=O)CNC(=O)[C@H](CCCNC(=N)N)NC(=O)[C@@H](C)NC(=O)[C@@H](N)CSSC[C@@H](C(N)=O)NC(=O)[C@@H](C)NC(=O)[C@H](CCC(N)=O)NC(=O)CNC(=O)[C@H](Cc2c[nH]c3ccccc23)NC(=O)[C@H](Cc2ccc(O)cc2)NC1=O) [RB9 M1]
- inhibition of cell migration (words) [1]: partial inhibition

Substance: C(dA)RGETARATFAYC-NH2 (C[dA]RGETARATFAYC-NH2; disulfide 1-14; N-terminus assumed; SMILES C[C@@H]1NC(=O)[C@H](CCCNC(=N)N)NC(=O)[C@H](C)NC(=O)[C@H]([C@@H](C)O)NC(=O)[C@H](CCC(=O)O)NC(=O)CNC(=O)[C@H](CCCNC(=N)N)NC(=O)[C@@H](C)NC(=O)[C@@H](N)CSSC[C@@H](C(N)=O)NC(=O)[C@H](Cc2ccc(O)cc2)NC(=O)[C@H](C)NC(=O)[C@H](Cc2ccccc2)NC(=O)[C@H]([C@@H](C)O)NC1=O) [RB9 M3]
- inhibition of cell migration (words) [1]: partial inhibition

Substance: C(dA)RGETARATFAYWGQGC-NH2 [RB9 M5]
- inhibition of cell migration (words) [1]: partial inhibition

Substance: CAAGETARATFAYWGQG-NH2 [RB10 A3]
- inhibition of cell migration (words) [1]: partial inhibition
- trypsin/EDTA-resistant cell adherence [2]: normally detached

Substance: CARAETARATFAYWGQG-NH2 [RB10 A4]
- inhibition of cell migration (words) [1]: partial inhibition
- trypsin/EDTA-resistant cell adherence [2]: high trypsin/EDTA-resistant cell adherence

Substance: CARGATARATFAYWGQG-NH2 [RB10 A5]
- trypsin/EDTA-resistant cell adherence [2]: normally detached

Substance: CARGEAARATFAYWGQG-NH2 [RB10 A6]
- inhibition of cell migration (words) [1]: partial inhibition
- trypsin/EDTA-resistant cell adherence [2]: high trypsin/EDTA-resistant cell adherence

Substance: CARGETA(dCit)AT(dF)AYWGQ(dA)-NH2 (CARGETA[dCit]AT[dF]AYWGQ[dA]-NH2; N-terminus assumed; SMILES C[C@H](NC(=O)[C@@H](NC(=O)[C@H](CCC(=O)O)NC(=O)CNC(=O)[C@H](CCCNC(=N)N)NC(=O)[C@H](C)NC(=O)[C@@H](N)CS)[C@@H](C)O)C(=O)N[C@H](CCCNC(N)=O)C(=O)N[C@@H](C)C(=O)N[C@H](C(=O)N[C@H](Cc1ccccc1)C(=O)N[C@@H](C)C(=O)N[C@@H](Cc1ccc(O)cc1)C(=O)N[C@@H](Cc1c[nH]c2ccccc12)C(=O)NCC(=O)N[C@@H](CCC(N)=O)C(=O)N[C@H](C)C(N)=O)[C@@H](C)O) [RB10 M1]
- inhibition of cell migration (words) [1]: partial inhibition

Substance: CARGETA(dCit)ATFAYWGQGC-NH2 [RB9 M4]
- inhibition of cell migration (words) [1]: partial inhibition

Substance: CARGETAAATFAYWGQG-NH2 [RB10 A8]
- inhibition of cell migration (words) [1]: partial inhibition
- trypsin/EDTA-resistant cell adherence [2]: normally detached

Substance: CFIARAGWYATEARGGQC-NH2 [RB9 Sc3]
- inhibition of cell migration (words) [1]: partial inhibition

Substance: CGTFEYRAQAGWAGRTA-NH2 [RB10 Scramble]
- inhibition of cell migration (words) [1]: partial inhibition

Substance: CGTFEYRAQAGWAGRTAC-NH2 (disulfide 1-18; N-terminus assumed; SMILES C[C@@H]1NC(=O)[C@H](Cc2c[nH]c3ccccc23)NC(=O)CNC(=O)[C@H](C)NC(=O)[C@H](CCC(N)=O)NC(=O)[C@H](C)NC(=O)[C@H](CCCNC(=N)N)NC(=O)[C@H](Cc2ccc(O)cc2)NC(=O)[C@H](CCC(=O)O)NC(=O)[C@H](Cc2ccccc2)NC(=O)[C@H]([C@@H](C)O)NC(=O)CNC(=O)[C@@H](N)CSSC[C@@H](C(N)=O)NC(=O)[C@H](C)NC(=O)[C@H]([C@@H](C)O)NC(=O)[C@H](CCCNC(=N)N)NC(=O)CNC1=O) [RB9 Scramble]
- inhibition of cell migration (words) [1]: partial inhibition

Substance: GYTFTGYNIH-NH2 [RB11]
- protection against lung colonization (lung nodules) [3]: unprotective
- antitumor activity (tumor cells): no antitumor activity

Substance: QQYSKLPLT-NH2 [RB14]
- protection against lung colonization (lung nodules) [3]: unprotective
- antitumor activity (tumor cells): no antitumor activity

Substance: SASQDIGNFLN-NH2 [RB12]
- protection against lung colonization (lung nodules) [3]: unprotective
- antitumor activity (tumor cells): no antitumor activity

Substance: YTSSLYS-NH2 [RB13]
- protection against lung colonization (lung nodules) [3]: unprotective
- antitumor activity (tumor cells): no antitumor activity

Substance: YWCRAAFTTEAGRACQGG-NH2 (disulfide 3-15; N-terminus assumed; SMILES C[C@@H]1NC(=O)[C@H](C)NC(=O)[C@H](CCCNC(=N)N)NC(=O)[C@@H](NC(=O)[C@H](Cc2c[nH]c3ccccc23)NC(=O)[C@@H](N)Cc2ccc(O)cc2)CSSC[C@@H](C(=O)N[C@@H](CCC(N)=O)C(=O)NCC(=O)NCC(N)=O)NC(=O)[C@H](C)NC(=O)[C@H](CCCNC(=N)N)NC(=O)CNC(=O)[C@H](C)NC(=O)[C@H](CCC(=O)O)NC(=O)[C@H]([C@@H](C)O)NC(=O)[C@H]([C@@H](C)O)NC(=O)[C@H](Cc2ccccc2)NC1=O) [RB9 Sc2]
- inhibition of cell migration (words) [1]: partial inhibition

Source: US9896512B2, “Antitumor peptide derived from a complementarity determining region of a humanized monoclonal antibody to NAP12B transporter” (Recepta Biopharma S.A., priority 2010, dated 2018)
